From patent publication US20250262139A1, “POLYPEPTIDES AND METHODS FOR IMPROVING SKIN CONDITIONS” (INTERK PEPTIDE THERAPEUTICS LIMITED, priority 2020, published 2025)
Where no end group is shown, it is not given here.

Key:
primary keratinocytes = experiment: ATP levels, CellTiter-Glo 2.0 Assay, after ssUV; assay type: cell-based; settings: 1.5 hours after UVR; compared with Calcitriol
Protocol: The influence of the polypeptide IK34720 (SEQ ID NO: 3) on intracellular ATP following UV exposure was assessed using the following protocol.
Primary keratinocytes were harvested as described above in Example 2 and were either exposed to ssUV-irradiation (UVR), as described above in Example 2 or not irradiated (SHAM), in the presence or absence of Calcitriol (positive control) or polypeptide IK34720 (SEQ ID NO: 3; RSKAKNPLYRRRRRRRRR), at the concentrations described in Example 2.
ATP levels were determined 1.5 hours after UVR using the CellTiter-Glo® 2.0 Assay (Promega, WI, USA) as described previously (Rybchyn et al., vide supra, 2017). All data in FIG. 4 is shown as mean+SD. *p<0.05, **p<0.01. Cells were prepared and irradiated as described above.

Skh: hr1 hairless mice = experiment: CPD (thymine dimer) immunohistochemistry in UV-irradiated mouse skin; assay type: in vivo; settings: topical immediately after UVR; IK34720 20, 100 or 200 μg, Calcitriol 11.4 pmol/cm2; 3 hours post-UVR; vs vehicle
Protocol: Female Skh: hr1 hairless mice were exposed to solar simulated UV-irradiation as described above at Example 4. Immediately after irradiation mice were treated topically on the dorsal surface also as described in Example 4. Subsequently, skin was fixed at 3 hours post-UVR, and subjected to immuno-histochemical staining using the antibody directed against thymine dimers (CPD) described above at 10 μg/ml. […] In FIG. 9, dark staining in nuclei indicates the presence of thymine dimers (CPD), and the % area stained is presented. Immunohistology was quantified as per Example 4.

[1] = molecular target: T1, Human rheumatoid synovial fibroblast MMP-1 (Homo sapiens, UniProt P03956); experiment: MMP-1 activity, fluorogenic substrate assay; assay type: biochemical; settings: 5, 10, 800 and 1000 μM; 8 nM activated enzyme
T1 construct: endogenous in cells; host or cells: human rheumatoid synovial fibroblasts
T1 sequence (P03956 100-469): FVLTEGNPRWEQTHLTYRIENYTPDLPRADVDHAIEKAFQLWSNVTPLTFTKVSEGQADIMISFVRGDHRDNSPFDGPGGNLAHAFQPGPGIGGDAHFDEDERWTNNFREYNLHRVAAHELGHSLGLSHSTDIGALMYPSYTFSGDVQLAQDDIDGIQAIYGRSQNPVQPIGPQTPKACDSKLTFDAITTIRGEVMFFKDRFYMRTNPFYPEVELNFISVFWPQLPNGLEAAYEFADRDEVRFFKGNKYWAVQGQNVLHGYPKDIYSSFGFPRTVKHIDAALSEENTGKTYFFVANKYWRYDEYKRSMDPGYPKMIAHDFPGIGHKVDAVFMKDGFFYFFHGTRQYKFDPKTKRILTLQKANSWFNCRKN
Protocol: Human rheumatoid synovial fibroblast MMP-1 proenzyme, activated with APMA for 60 minutes at 37° C., was used as an active enzyme. The polypeptide IK34720 (SEQ ID NO: 3) at a concentration of 5 μM. 10 μM 800 μM and 1000 μM was pre-incubated with 8 nM activated enzyme in modified MOPS buffer pH 7.2 for 60 minutes at 37° C. The reaction was initiated by addition of […] Mca-Pro-Leu-Gly-Leu-Dap-Ala-Arg followed by a 2 hour incubation period. Determination of the amount of Mca-Pro-Leu-Gly formed was read spectrofluorimetrically at 340 nm/400 nm.

MMP1 = MMP1 immunohistochemical staining in UV-irradiated human skin explants; assay type: cell-based
Protocol: Human skin (2×human explant tissues) removed at elective surgery was cleaned, dissected and cut into pieces of approx. 5 mm×5 mm. Each piece was placed in a well of a 96 well plate, with individual plates prepared to assess the effects 3 hrs post treatment. Skin was subjected to UV-radiation from solar-simulated UV source for 1.5 h (UVR), or non-irradiation (SHAM), and treated immediately after with a vehicle control, Calcitriol (1 nM) or the polypeptide IK34720 (SEQ ID NO: 3) at concentrations of 50 μM, 250 μM or 500 μM. In FIG. 17, IK50, IK250 and IK500 as μM concentrations refers to 15 μg, 75 μg and 150 μg of IK34720 per 120 μL culture medium/explant, respectively.
Samples harvested at 3 hrs were fixed, sectioned, immunohistochemically stained for MMP1 and quantified for MMP1 expression, by expressing epidermal area stained for MMP1 as a function of total epidermal area examined.

RSKAKNPLYRRRRRRRRR (not fully specified (some residues)) [IK34720]
ATP levels (primary keratinocytes): enhanced the ATP levels | CPD formation in the skin (% area stained) (Skh: hr1 hairless mice): inhibits CPD formation | MMP-1 activity [1]: inhibits MMP-1 activation in a dose dependent manner | percentage of MMP1 positive cells (MMP1; 500 μM, 3 hrs post irradiation): statistically significantly reduced | cells staining for MMP-1 (MMP1; 3 hrs post irradiation/treatment, Calcitriol 1 nM, IK34720 50, 250 or 500 μM): fewer stained cells
